The numbers were not newly measured in patent US20090325888A1, “Peptides having a health benefit and compositions comprising them” (priority 2005, published 2009), which cites them from elsewhere.

The target of one data set is ACE (Homo sapiens, UniProt P12821).
In a further data set the test system is hypertensive humans. Conditions: in sour milk, Hata 1996.

Chain of ACE (P12821 30-1306, species assumed): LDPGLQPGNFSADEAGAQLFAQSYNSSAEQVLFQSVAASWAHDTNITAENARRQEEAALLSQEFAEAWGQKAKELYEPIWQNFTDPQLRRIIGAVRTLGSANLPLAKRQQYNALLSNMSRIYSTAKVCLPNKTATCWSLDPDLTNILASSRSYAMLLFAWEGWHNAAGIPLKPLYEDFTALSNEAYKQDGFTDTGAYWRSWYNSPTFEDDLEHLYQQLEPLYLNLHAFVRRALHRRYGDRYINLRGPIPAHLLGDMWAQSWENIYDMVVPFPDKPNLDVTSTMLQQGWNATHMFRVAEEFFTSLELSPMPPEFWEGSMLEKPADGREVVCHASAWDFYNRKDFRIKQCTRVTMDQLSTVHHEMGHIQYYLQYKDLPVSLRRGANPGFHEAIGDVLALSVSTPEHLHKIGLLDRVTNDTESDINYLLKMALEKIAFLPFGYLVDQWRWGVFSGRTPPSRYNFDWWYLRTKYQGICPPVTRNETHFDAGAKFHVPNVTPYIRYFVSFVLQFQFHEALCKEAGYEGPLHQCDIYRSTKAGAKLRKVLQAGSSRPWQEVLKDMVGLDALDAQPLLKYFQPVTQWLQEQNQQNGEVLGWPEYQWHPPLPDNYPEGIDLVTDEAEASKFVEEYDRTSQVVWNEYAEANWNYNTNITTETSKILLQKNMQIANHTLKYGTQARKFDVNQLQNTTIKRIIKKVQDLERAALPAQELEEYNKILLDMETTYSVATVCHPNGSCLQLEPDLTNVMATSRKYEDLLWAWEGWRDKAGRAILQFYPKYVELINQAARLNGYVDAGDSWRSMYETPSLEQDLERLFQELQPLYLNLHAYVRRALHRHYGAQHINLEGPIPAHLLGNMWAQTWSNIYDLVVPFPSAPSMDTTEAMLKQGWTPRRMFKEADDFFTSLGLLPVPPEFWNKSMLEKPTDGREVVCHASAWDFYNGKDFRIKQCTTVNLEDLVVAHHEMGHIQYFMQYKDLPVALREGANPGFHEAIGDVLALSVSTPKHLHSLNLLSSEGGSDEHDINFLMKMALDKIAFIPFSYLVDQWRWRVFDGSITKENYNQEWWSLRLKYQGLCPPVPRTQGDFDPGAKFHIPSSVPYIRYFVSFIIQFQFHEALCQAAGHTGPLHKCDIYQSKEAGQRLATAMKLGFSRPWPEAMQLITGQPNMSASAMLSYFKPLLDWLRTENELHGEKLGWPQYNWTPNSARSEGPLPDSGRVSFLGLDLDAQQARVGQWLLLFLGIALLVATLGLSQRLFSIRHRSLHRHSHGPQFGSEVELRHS

As to `CC[C@H](C)[C@H](N)C(=O)N1CCC[C@H]1C(=O)N1CCC[C@H]1C(=O)O` [IPP], at ACE (peptides in fermented milk products), the “in vitro ACE inhibition” value is reported as “in vitro ACE inhibition”. Also, the “blood pressure lowering effect” value in the data set with hypertensive humans was “blood pressure lowering effect”. As to “LPP: known ACE inhibiting tripeptide, β-casein f151-153 (UniProt P02666 166-168, looked up, fragment)”, the 50% inhibitory concentration (IC50) with ACE (Nakamura 1995, Aryoshi 1993, read-out: IC50 values reported earlier as ACEI peptides) is 9.6 µM.
